The text below walks through data of patent US20100034762A1, “Novel enrichment methods for gallic acid esters including 1-O-galloy1-bata-D-glucose and mucic acid gallates medicaments, therapeutic applications and methods of treatment thereof” (priority 2008, published 2010).

Experiment [1] is described as follows: Oxygen Radical Absorbance Capacity (ORAC). To be noted: Trolox equivalents.

With `O=C(O)c1cc(O)c(O)c(O)c1` [Gallic acid, gallic acid], in experiment [1], the “ORAC (μmol TE/gm)” value turned out to be 6712 μmol TE/gm. In addition, the “DPPH IC50” value in “DPPH scavenging” was determined as 0.32 µg/mL.
The matching figures for `O=C1O[C@H]([C@@H](O)CO)C(O)=C1O` [Vitamin C, Ascorbic acid]: 3400 μmol TE/gm and 1.93 µg/mL.
